# Laboratory results as given in paper PMC7561186, “Rational design of balanced dual-targeting antibiotics with limited resistance” (PLoS Biology, 2020).
# Read-outs that look alike come from different tables or passages of the source.
# System: S. aureus clinical isolates
# Test: microbe, parasite or virus in culture
# Type: cell-based
# Settings: Staphylococcus aureus, read-out: MIC
structure (smiles),measurement,setting,value
Cc1[nH]c(C(=O)Nc2nc3c(OCc4ccccc4)cc(C(=O)O)cc3s2)c(Cl)c1Cl [ULD2],MIC,"MRSA, S. aureus IHMA 1592776, MRSA / VSSA",0.25 µg/mL
same,MIC,"MRSA, S. aureus IHMA 1597106, MRSA / VSSA",0.5 µg/mL
same,MIC,"MRSA, S. aureus IHMA 1602095, MRSA / VSSA",0.25 µg/mL
same,MIC,"MRSA, S. aureus IHMA 1611170, MRSA / VSSA",0.25 µg/mL
same,MIC,"MRSA, S. aureus IHMA 1611612, MRSA / VSSA",0.25 µg/mL
same,MIC,"MRSA, S. aureus IHMA 1612228, MRSA / VSSA",0.25 µg/mL
same,MIC,"MRSA, S. aureus IHMA 1620441, MRSA / VSSA",0.25 µg/mL
same,MIC,"MRSA, S. aureus IHMA 1621638, MRSA / VSSA",0.5 µg/mL
same,MIC,"MRSA, S. aureus IHMA 1622252, MRSA / VSSA",0.5 µg/mL
same,MIC,"MRSA, S. aureus IHMA 1622527, MRSA / VSSA",0.25 µg/mL
same,MIC,"MRSA, S. aureus IHMA 1666371, MRSA / VSSA",0.25 µg/mL
same,MIC,"MRSA, S. aureus IHMA 1695391, MRSA / VSSA",0.12 µg/mL
same,MIC,"MRSA, S. aureus IHMA 1703428, MRSA / VSSA",0.5 µg/mL
same,MIC,"MRSA, S. aureus IHMA 1720350, MRSA / VSSA",0.5 µg/mL
same,MIC,"MRSA, S. aureus IHMA 1732989, MRSA / VSSA",0.5 µg/mL
same,MIC,"MRSA, S. aureus IHMA 1742231, MRSA / VSSA",0.12 µg/mL
same,MIC,"MRSA, S. aureus IHMA 1766357, MRSA / VSSA",0.12 µg/mL
same,MIC,"MSSA / NRS 12 / VISA, S. aureus IHMA 1308244, NRS12, MSSA / VISA",0.5 µg/mL
same,MIC,"MSSA / NRS 13 / VISA, S. aureus IHMA 1308245, NRS13, MSSA / VISA",0.5 µg/mL
same,MIC,"MSSA / NRS 14 / VISA, S. aureus IHMA 1308246, NRS14, MSSA / VISA",1 µg/mL
same,MIC,"MSSA / NRS 17 / VISA, S. aureus IHMA 1308247, NRS17, MSSA / VISA",1 µg/mL
same,MIC,"MSSA / NRS 28 / VISA, S. aureus IHMA 1308249, NRS28, MSSA / VISA",1 µg/mL
same,MIC,"MSSA / NRS 52, S. aureus IHMA 1308252, NRS52, MSSA / VSSA* (*Expected VAN intermediate, confirmed VAN susceptible twice), test date 2018-11-07",0.12 µg/mL
same,MIC,"MSSA / USA100 / VRSA, S. aureus IHMA 672236, VRS6, MSSA / VRSA, USA100",0.12 µg/mL
same,MIC,"MSSA, S. aureus IHMA 1563826, MSSA / VSSA",0.25 µg/mL
same,MIC,"MSSA, S. aureus IHMA 1565492, MSSA / VSSA",0.12 µg/mL
same,MIC,"MSSA, S. aureus IHMA 1569499, MSSA / VSSA",0.5 µg/mL
same,MIC,"MSSA, S. aureus IHMA 1569754, MSSA / VSSA",0.12 µg/mL
same,MIC,"MSSA, S. aureus IHMA 1574202, MSSA / VSSA",0.25 µg/mL
same,MIC,"MSSA, S. aureus IHMA 1575652, MSSA / VSSA",0.25 µg/mL
same,MIC,"MSSA, S. aureus IHMA 1575779, MSSA / VSSA",0.5 µg/mL
same,MIC,"MSSA, S. aureus IHMA 1576329, MSSA / VSSA",0.5 µg/mL
same,MIC,"MSSA, S. aureus IHMA 1577800, MSSA / VSSA",0.25 µg/mL
same,MIC,"MSSA, S. aureus IHMA 1578560, MSSA / VSSA",0.5 µg/mL
same,MIC,"MSSA, S. aureus IHMA 1580233, MSSA / VSSA",0.12 µg/mL
same,MIC,"MSSA, S. aureus IHMA 1580925, MSSA / VSSA",0.25 µg/mL
same,MIC,"MSSA, S. aureus IHMA 1580955, MSSA / VSSA",0.5 µg/mL
same,MIC,"MSSA, S. aureus IHMA 1582586, MSSA / VSSA",0.5 µg/mL
same,MIC,"MSSA, S. aureus IHMA 1582691, MSSA / VSSA",0.25 µg/mL
same,MIC,"MSSA, S. aureus IHMA 1584230, MSSA / VSSA",0.5 µg/mL
same,MIC,"MSSA, S. aureus IHMA 1587279, MSSA / VSSA",0.5 µg/mL
same,MIC,"MSSA, S. aureus IHMA 1591459, MSSA / VSSA",0.25 µg/mL
same,MIC,"MSSA, S. aureus IHMA 1592749, MSSA / VSSA",0.5 µg/mL
same,MIC,"MSSA, S. aureus IHMA 1592751, MSSA / VSSA",0.25 µg/mL
same,MIC,"MSSA, S. aureus IHMA 1594297, MSSA / VSSA",1 µg/mL
same,MIC,"MSSA, S. aureus IHMA 1597120, MSSA / VSSA",0.5 µg/mL
same,MIC,"MSSA, S. aureus IHMA 1597125, MSSA / VSSA",0.5 µg/mL
same,MIC,"MSSA, S. aureus IHMA 1599157, MSSA / VSSA",0.5 µg/mL
same,MIC,"MSSA, S. aureus IHMA 1599506, MSSA / VSSA",0.12 µg/mL
same,MIC,"MSSA, S. aureus IHMA 1602078, MSSA / VSSA",0.5 µg/mL
same,MIC,"MSSA, S. aureus IHMA 1604586, MSSA / VSSA",0.25 µg/mL
same,MIC,"MSSA, S. aureus IHMA 1604609, MSSA / VSSA",0.5 µg/mL
same,MIC,"MSSA, S. aureus IHMA 1609919, MSSA / VSSA",0.25 µg/mL
same,MIC,"MSSA, S. aureus IHMA 1622864, MSSA / VSSA",0.25 µg/mL
same,MIC,"MSSA, S. aureus IHMA 1626392, MSSA / VSSA",0.5 µg/mL
same,MIC,"MSSA, S. aureus IHMA 1713793, MSSA / VSSA",0.5 µg/mL
